We go through 1 compound from patent US20200016231A1, “BIOFILM DISRUPTING COMPOSITION” (Whiteley Corporation Pty Ltd, priority 2016, published 2020).

For the test, the system named is Multidrug resistant Acinetobacter Baumannii, (MRAB). The test can be described thus: microbe, parasite or virus in culture.

Where two headings read alike, the source gives them in different places.

Take `NCC[C@H](O)C(=O)N[C@@H]1C[C@H](N)[C@@H](O[C@H]2O[C@H](CN)[C@@H](O)[C@H](O)[C@H]2O)[C@H](O)[C@H]1O[C@H]1O[C@H](CO)[C@@H](O)[C@H](N)[C@H]1O` [AMI, Amikacin]: the viability at 4 µg/mL amounted to 35.9% (read-out: % bacterial viability, MRAB 1 014754 Urine, AMI 4 μg/ml); 36% (read-out: % bacterial viability, MRAB 2 014801 Catheter, AMI 4 μg/ml); 66.6% (read-out: % bacterial viability, MRAB 3 015069 Skin, AMI 4 μg/ml); 66.4% (read-out: % bacterial viability, MRAB 4 015095 Hospital Environ, AMI 4 μg/ml); 65.2% (read-out: % bacterial viability, MRAB 5 015103 Hospital Environ, AMI 4 μg/ml); 49.7% (read-out: % bacterial viability, MRAB 12 016419 Catheter, AMI 4 μg/ml). Further, the viability at 12 µg/mL was found to be 24.5% (read-out: % bacterial viability, MRAB 1 014754 Urine, AMI 12 μg/ml); 14.1% (read-out: % bacterial viability, MRAB 2 014801 Catheter, AMI 12 μg/ml); 48.6% (read-out: % bacterial viability, MRAB 3 015069 Skin, AMI 12 μg/ml); 42.9% (read-out: % bacterial viability, MRAB 4 015095 Hospital Environ, AMI 12 μg/ml); 26.9% (read-out: % bacterial viability, MRAB 5 015103 Hospital Environ, AMI 12 μg/ml); 22.7% (read-out: % bacterial viability, MRAB 12 016419 Catheter, AMI 12 μg/ml). The viability at 20 µg/mL runs as follows: (read-out: % bacterial viability, MRAB 1 014754 Urine, AMI 20 μg/ml) 14.7%; (read-out: % bacterial viability, MRAB 2 014801 Catheter, AMI 20 μg/ml) 8.36%; (read-out: % bacterial viability, MRAB 3 015069 Skin, AMI 20 μg/ml) 41.7%; (read-out: % bacterial viability, MRAB 4 015095 Hospital Environ, AMI 20 μg/ml) 33.9%; (read-out: % bacterial viability, MRAB 5 015103 Hospital Environ, AMI 20 μg/ml) 24.6%; (read-out: % bacterial viability, MRAB 12 016419 Catheter, AMI 20 μg/ml) 19.8%.
